Test results taken from ChEMBL document CHEMBL6109053, “Aspirin-based PROTACs as COX-2 degraders for anti-inflammation” (Bioorg Med Chem, 2025).
pIC50: −log10 of the molar value. Calls of active or inactive are those of the source. The calls are words filed in the database; no cut-off is given here.

Columns and labels:
[1] = molecular target: T1, Prostaglandin G/H synthase 2 (Homo sapiens, UniProt P35354); assay: Inhibition of human recombinant COX-2 using S0168-2 as substrate preincubated for 10 mins followed by substrate addition and measured after 10 mins by microplate reader analysis
T1 sequence (P35354 whole entry): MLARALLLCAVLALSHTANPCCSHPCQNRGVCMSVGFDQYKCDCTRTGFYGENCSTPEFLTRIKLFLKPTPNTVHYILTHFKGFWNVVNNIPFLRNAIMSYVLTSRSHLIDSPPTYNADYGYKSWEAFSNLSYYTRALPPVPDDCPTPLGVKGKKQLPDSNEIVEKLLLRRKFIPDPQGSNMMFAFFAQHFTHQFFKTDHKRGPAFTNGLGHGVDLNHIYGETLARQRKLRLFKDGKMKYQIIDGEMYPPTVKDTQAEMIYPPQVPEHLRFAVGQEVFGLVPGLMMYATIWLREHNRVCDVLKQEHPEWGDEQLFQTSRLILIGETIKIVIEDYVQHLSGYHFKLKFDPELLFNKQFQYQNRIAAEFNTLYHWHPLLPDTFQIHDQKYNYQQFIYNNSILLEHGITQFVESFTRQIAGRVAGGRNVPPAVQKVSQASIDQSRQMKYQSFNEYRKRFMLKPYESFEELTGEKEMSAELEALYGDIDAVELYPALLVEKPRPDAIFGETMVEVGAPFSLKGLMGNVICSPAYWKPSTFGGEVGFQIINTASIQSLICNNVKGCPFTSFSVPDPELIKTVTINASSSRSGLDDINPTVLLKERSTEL

RAW264.7 [2] = assay: Cytotoxicity against mouse RAW264.7 cells at 20 uM incubated for 24 hrs by CCK-8 assay; type: toxicity, cell-based; details: raw264.7, 24 h
RAW264.7 [3] = assay: PROTAC activity at COX-2/VHL in mouse RAW264.7 cells assessed as downregulation of COX2 expression measured after 24 hrs by Western blot analysis; type: cell-based; details: dose 5-20 µM
RAW264.7 [4] = assay: Anti-inflammatory activity in LPS-induced mouse RAW264.7 cells; type: functional, cell-based
[5] = molecular target: Protein cereblon/Prostaglandin G/H synthase 2 (Mus musculus) (UniProt Q05769+Q8C7D2); assay: PROTAC activity at COX-2/CRBN in mouse RAW264.7 cells assessed as downregulation of COX2 expression measured after 24 hrs by Western blot analysis; type: cell-based; details: dose 5-20 µM
Protein cereblon/Prostaglandin G/H synthase 2 (Mus musculus), sequence (Q05769 whole entry, looked up): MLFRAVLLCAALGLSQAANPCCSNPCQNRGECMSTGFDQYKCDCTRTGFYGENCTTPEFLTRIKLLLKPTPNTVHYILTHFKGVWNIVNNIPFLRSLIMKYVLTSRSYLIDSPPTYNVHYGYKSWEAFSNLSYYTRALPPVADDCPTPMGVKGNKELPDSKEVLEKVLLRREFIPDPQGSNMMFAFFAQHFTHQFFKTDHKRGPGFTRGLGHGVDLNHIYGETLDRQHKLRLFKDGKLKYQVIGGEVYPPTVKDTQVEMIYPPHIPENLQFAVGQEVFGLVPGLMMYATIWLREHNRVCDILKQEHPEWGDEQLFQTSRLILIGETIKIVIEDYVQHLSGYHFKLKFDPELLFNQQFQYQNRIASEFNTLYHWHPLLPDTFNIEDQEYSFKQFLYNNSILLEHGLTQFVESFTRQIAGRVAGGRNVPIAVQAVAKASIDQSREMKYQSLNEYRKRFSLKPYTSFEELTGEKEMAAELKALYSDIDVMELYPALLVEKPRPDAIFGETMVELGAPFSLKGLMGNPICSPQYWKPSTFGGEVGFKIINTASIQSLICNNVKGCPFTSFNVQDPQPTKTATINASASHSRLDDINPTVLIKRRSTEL
Protein cereblon/Prostaglandin G/H synthase 2 (Mus musculus), sequence (Q8C7D2 whole entry, looked up): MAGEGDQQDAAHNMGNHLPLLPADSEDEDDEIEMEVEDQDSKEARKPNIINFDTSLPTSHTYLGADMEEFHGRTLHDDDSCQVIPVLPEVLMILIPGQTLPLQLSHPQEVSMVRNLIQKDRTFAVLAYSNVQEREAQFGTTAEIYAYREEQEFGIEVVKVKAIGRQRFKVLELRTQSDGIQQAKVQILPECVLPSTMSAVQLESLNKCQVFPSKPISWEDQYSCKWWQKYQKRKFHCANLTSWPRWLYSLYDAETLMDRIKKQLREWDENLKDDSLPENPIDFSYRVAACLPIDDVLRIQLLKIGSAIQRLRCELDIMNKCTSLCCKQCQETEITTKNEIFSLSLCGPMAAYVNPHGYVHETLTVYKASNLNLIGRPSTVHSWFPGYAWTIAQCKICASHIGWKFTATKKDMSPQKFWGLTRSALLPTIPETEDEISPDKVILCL

Row | pIC50 [1] | Activity [5] | Compound | Activity (RAW264.7 [2]) | Activity (RAW264.7 [3]) | Activity (RAW264.7 [4])
1 | 3.49 | – | Cc1ncsc1-c1ccc([C@@H](C)NC(=O)[C@@H]2C[C@@H](O)CN2C(=O)[C@@H](NC(=O)CCCCn2cc(CCC(=O)Oc3ccccc3C(=O)O)nn2)C(C)(C)C)cc1 | Non-toxic | Dose-dependent-effect | Active
2 | – | Dose-dependent-effect | O=C1CCC(N2C(=O)c3cccc(NC4CCC(NC(=O)CCCCn5cc(CCC(=O)Oc6ccccc6C(=O)O)nn5)CC4)c3C2=O)C(=O)N1 (configuration not stated) | Non-toxic | – | Active
